{"source": "paper PMC7851014", "about": "(Investigational New Drugs, 2020)", "key": {"ciPTEC [1]": {"test_system": "ciPTEC", "assay_type": "cell-based", "conditions": "2 μM ibrutinib with efflux transporter inhibitors, 48 h", "description": "Cytotoxicity was evaluated using a Presto-blue assay as follows: cells were incubated for 1 h with Presto-blue solution (100 μL/well) at 37 °C and […] read using a Jasco FP8300 fluorometer (Tokyo, Japan; excitation wavelength: 560 nm, emission wavelength: 590 nm)."}, "ciPTEC [2]": {"test_system": "ciPTEC", "conditions": "ciPTEC, after 48 h", "experimental": "Medium and cell lysate samples were taken at 1, 2, 3 and 4 h. Each time point was measured in duplicate. Preincubation (t0) analyte concentrations in medium were also analyzed."}, "[3]": {"assay": "Ibrutinib and SMT-conjugate pharmacokinetics in human subjects (plasma of patients A and B)", "conditions": "for Concentration: omitted (no group)", "experimental": "(§1) For analysis, 200 μL acetonitrile containing the internal standards was added to 100 μL sample. After mixing and centrifuging, 200 μL supernatant was transferred, and thereafter the solvent was partially evaporated. Before the samples were analyzed by ultra-high-performance liquid chromatography with mass spectrometer detection [21], 100 μL of mobile phase (water:acetonitrile:formic acid, 90:10:0.1 (v:v:v)) was added.\n(§2) When no time was available at all, the sample was omitted. […] Pharmacokinetic (PK) data was analyzed using the PKNCA package (version 0.8.1) [22] for the statistical software R (version 3.4.2) [23] and RStudio (version 1.1.383) [24]."}, "[4]": {"conditions": "human, in vivo", "experimental": "as §1, §2"}, "clinical [5]": {"assay": "clinical", "conditions": "male, human, in vivo, 140 mg", "experimental": "as §1\nTime-concentration data of three patients were analyzed. […] When no time was available at all, the sample was omitted. […] Pharmacokinetic (PK) data was analyzed using the PKNCA package (version 0.8.1) [22] for the statistical software R (version 3.4.2) [23] and RStudio (version 1.1.383) [24]."}, "clinical [6]": {"assay": "clinical", "conditions": "human, in vivo", "experimental": "as §1, §2"}}, "data": [{"smiles": "C=CC(=O)N1CCC[C@@H](n2nc(-c3ccc(Oc4ccccc4)cc3)c3c(N)ncnc32)C1", "note": "[Ibrutinib, reference compound]", "values": [{"measurement": "cell death", "setting": "ciPTEC [1]", "value": "up to 50%"}, {"measurement": "ibrutinib metabolized", "setting": "ciPTEC [2]", "value": "ca. 98%"}, {"measurement": "concentration at 1.4 h", "setting": "[3]; human, in vivo, 420 mg, Concentration, patient A, sample ID 2, T 1.4 h, 1xdd 420mg, group abs", "value": 6.6, "unit": "nM"}, {"measurement": "concentration at 0.5 h", "setting": "[3]; human, in vivo, 420 mg, Concentration, patient A, sample ID 5, T 0.5 h, 1xdd 420mg, group abs", "value": 11.8, "unit": "nM"}, {"measurement": "concentration at 0.8 h", "setting": "[3]; human, in vivo, 420 mg, Concentration, patient A, sample ID 6, T 0.8 h, 1xdd 420mg, group abs", "value": 14.6, "unit": "nM"}, {"measurement": "concentration at 22.7 h", "setting": "[3]; human, in vivo, 420 mg, Concentration, patient A, sample ID 8, T 22.7 h, 1xdd 420mg, group trough", "value": 8.9, "unit": "nM"}, {"measurement": "concentration at 22.2 h", "setting": "[3]; human, in vivo, 420 mg, Concentration, patient A, sample ID 10, T 22.2 h, 1xdd 420mg, group trough", "value": 7, "unit": "nM"}, {"measurement": "concentration at 22.6 h", "setting": "[3]; human, in vivo, 420 mg, Concentration, patient A, sample ID 11, T 22.6 h, 1xdd 420mg, group trough", "value": 4.3, "unit": "nM"}, {"measurement": "concentration at 2.5 h", "setting": "[3]; human, in vivo, 420 mg, Concentration, patient A, sample ID 13, T 2.5 h, 1xdd 420mg, group max", "value": 683, "unit": "nM"}, {"measurement": "concentration at 3.8 h", "setting": "[3]; human, in vivo, 420 mg, Concentration, patient A, sample ID 14, T 3.8 h, 1xdd 420mg, group max", "value": 151, "unit": "nM"}, {"measurement": "concentration at 23.3 h", "setting": "[3]; human, in vivo, 420 mg, Concentration, patient A, sample ID 19, T 23.3 h, 1xdd 420mg, group trough", "value": 5.5, "unit": "nM"}, {"measurement": "concentration at 0.8 h", "setting": "[3]; human, in vivo, 420 mg, Concentration, patient A, sample ID 21, T 0.8 h, 1xdd 420mg, group abs", "value": 143, "unit": "nM"}, {"measurement": "concentration at 0.8 h", "setting": "[3]; human, in vivo, 560 mg, Concentration, patient A, sample ID 3, T 0.8 h, 1xdd 560mg, group abs", "value": 3.5, "unit": "nM"}, {"measurement": "concentration at 2.8 h", "setting": "[3]; human, in vivo, 560 mg, Concentration, patient B, sample ID 4, T 2.8 h, 1xdd 560mg, group max", "value": 234, "unit": "nM"}, {"measurement": "concentration at 4.1 h", "setting": "[3]; human, in vivo, 560 mg, Concentration, patient B, sample ID 7, T 4.1 h, 1xdd 560mg, group max", "value": 360, "unit": "nM"}, {"measurement": "concentration at 4.4 h", "setting": "[3]; human, in vivo, 560 mg, Concentration, patient B, sample ID 9, T 4.4 h, 1xdd 560mg, group max", "value": 192, "unit": "nM"}, {"measurement": "concentration at 2.4 h", "setting": "[3]; human, in vivo, 560 mg, Concentration, patient B, sample ID 12, T 2.4 h, 1xdd 560mg, group max", "value": 551, "unit": "nM"}, {"measurement": "concentration at 3.9 h", "setting": "[3]; human, in vivo, 560 mg, Concentration, patient B, sample ID 17, T 3.9 h, 1xdd 560mg, group max", "value": 578, "unit": "nM"}, {"measurement": "concentration at 3.8 h", "setting": "[3]; human, in vivo, 560 mg, Concentration, patient B, sample ID 20, T 3.8 h, 1xdd 560mg, group max", "value": 196, "unit": "nM"}, {"measurement": "concentration at 4.1 h", "setting": "[3]; human, in vivo, 560 mg, Concentration, patient B, sample ID 23, T 4.1 h, 1xdd 560mg, group max", "value": 497, "unit": "nM"}, {"measurement": "concentration at 4.4 h", "setting": "[3]; human, in vivo, 560 mg, Concentration, patient B, sample ID 24, T 4.4 h, 1xdd 560mg, group max", "value": 323, "unit": "nM"}, {"measurement": "Concentration", "setting": "[3]; patient A, sample ID 15, T NA, 1xdd 420mg", "value": 15.8, "unit": "nM"}, {"measurement": "Concentration", "setting": "[3]; patient A, sample ID 22, T NA, 1xdd 420mg", "value": 0.9, "unit": "nM"}, {"measurement": "Cmax", "setting": "[4]", "value": "370 ± 180 (151–683) nM"}, {"measurement": "Ctrough", "setting": "[4]", "value": "6.4 ± 2 (4.3–8.9) nM"}, {"measurement": "AUC(0-t)", "setting": "clinical [5]", "value": 0.325, "unit": "µM·h"}, {"measurement": "Tmax", "setting": "clinical [6]", "value": 2.6, "unit": "h"}]}]}
